Experimental data reported in patent US12419966B2, “In vivo radical-mediated polymerization for targeted delivery of trophic factors” (RUTGERS, THE STATE UNIVERSITY OF NEW JERSEY, priority 2017, dated 2025).

Tested on: Rat cortical neurons
Test: Rat cortical neuron cytotoxicity (MTT)
Assay type: cell-based
Details: above 500 μM
Method: Rat Cortical Neuron Culture and Cellular Protection Studies (Cytotoxicity and Protection): Rat cortical neurons were isolated from a timed pregnant animal at embryonic day 18 as described in the literature via techniques commonly employed in the literature. Neurons were cultured in Neurobasal media containing 2% B27 supplement, 1% KCl, 1% penicillin/streptomycin, and 0.5% L-glutamine and seeded into 96 well plates at a density of 100,000 cells/well. […] Cellular metabolic activity was then evaluated using the Vybrant MTT assay (Life Technologies) according to the manufacturer's instructions. […] Metabolic activity was again measured using the MTT assay.
(3-(4,5-dimethylthiazol-2-yl)-2,5-diphenyltetrazolium bromide) (MTT) was added to the cultures at 12 mM and allowed to incubate for 4 hours at 37° C. MTT was metabolized by mitochondrial activity to form an insoluble formazan product. The formazan product was solubilized by the addition of sodium dodecyl sulfate and further incubation for 4 hours. Absorbance measurements at 570 nm were collected to determine the amount of MTT that was metabolized by the culture and viability was reported as a percentage of MTT metabolized by uninjured control cultures.

O=C1O[C@H]([C@@H](O)CO)C(O)=C1O [ascorbic acid]
cellular activity of rat cortical neurons: decreases observed
